In ChEMBL document CHEMBL5346964, “Discovery of LNP1892: A Precision Calcimimetic for the Treatment of Secondary Hyperparathyroidism” (J Med Chem, 2023):

Legend:
[1] = Effect on parathyroid hormone in overnight fasted Sprague-Dawley rat assessed as reduction in plasma PTH level at 10 mg/kg, po measured after 2 hrs of post treatment by sandwich ELISA analysis; format: functional; parameters: scale not given: the % may be the effect or the level left
[2] = Effect on parathyroid hormone in overnight fasted Sprague-Dawley rat assessed as reduction in plasma PTH level at 10 mg/kg, po measured after 1 hrs of post treatment by sandwich ELISA analysis; format: functional; parameters: scale not given: the % may be the effect or the level left
[3] = AUClast in Sprague-Dawley rat at 1 mg/kg, iv measured upto 24 hrs by LC-MS/MS analysis; format: ADME, organism-based; parameters: dose 1 mg/kg, time < 24 hrs, route iv; details: in vivo
[4] = Tmax in Sprague-Dawley rat at 10 mg/kg, po measured upto 24 hrs by LC-MS/MS analysis; format: ADME, organism-based; details: in vivo
[5] = Microsomal stability in rat liver microsomes assessed as parent compound remaining at 1 uM measured upto 30 mins in presence of NADPH by LC-MS/MS analysis; format: ADME, Microsome; details: read-out: Stability
[6] = Effect on parathyroid hormone in overnight fasted Sprague-Dawley rat assessed as reduction in plasma PTH level at 10 mg/kg, po measured after 4 hrs of post treatment by sandwich ELISA analysis (reference value: 18%); format: functional; parameters: scale not given: the % may be the effect or the level left
[7] = Effect on parathyroid hormone in overnight fasted Sprague-Dawley rat plasma assessed as reduction in PTH level at 30 mg/kg, po measured after 0.5 hrs of post treatment by sandwich ELISA analysis; format: functional; parameters: scale not given: the % may be the effect or the level left
[8] = Cmax in Sprague-Dawley rat at 1 mg/kg, iv measured upto 24 hrs by LC-MS/MS analysis; format: ADME, organism-based; parameters: dose 1 mg/kg, time < 24 hrs, route iv; details: in vivo
[9] = Clearance in Sprague-Dawley rat at 1 mg/kg, iv measured upto 24 hrs by LC-MS/MS analysis; format: ADME, organism-based; details: in vivo
[10] = Oral bioavailability in Sprague-Dawley rat at 10 mg/kg measured upto 24 hrs by LC-MS/MS analysis; format: ADME, organism-based; details: in vivo
hERG [11] = molecular target: T1, hERG (Homo sapiens, UniProt Q12809); assay: Inhibition of hERG at 1 uM relative to control; format: toxicity
T1 sequence (Q12809 whole entry): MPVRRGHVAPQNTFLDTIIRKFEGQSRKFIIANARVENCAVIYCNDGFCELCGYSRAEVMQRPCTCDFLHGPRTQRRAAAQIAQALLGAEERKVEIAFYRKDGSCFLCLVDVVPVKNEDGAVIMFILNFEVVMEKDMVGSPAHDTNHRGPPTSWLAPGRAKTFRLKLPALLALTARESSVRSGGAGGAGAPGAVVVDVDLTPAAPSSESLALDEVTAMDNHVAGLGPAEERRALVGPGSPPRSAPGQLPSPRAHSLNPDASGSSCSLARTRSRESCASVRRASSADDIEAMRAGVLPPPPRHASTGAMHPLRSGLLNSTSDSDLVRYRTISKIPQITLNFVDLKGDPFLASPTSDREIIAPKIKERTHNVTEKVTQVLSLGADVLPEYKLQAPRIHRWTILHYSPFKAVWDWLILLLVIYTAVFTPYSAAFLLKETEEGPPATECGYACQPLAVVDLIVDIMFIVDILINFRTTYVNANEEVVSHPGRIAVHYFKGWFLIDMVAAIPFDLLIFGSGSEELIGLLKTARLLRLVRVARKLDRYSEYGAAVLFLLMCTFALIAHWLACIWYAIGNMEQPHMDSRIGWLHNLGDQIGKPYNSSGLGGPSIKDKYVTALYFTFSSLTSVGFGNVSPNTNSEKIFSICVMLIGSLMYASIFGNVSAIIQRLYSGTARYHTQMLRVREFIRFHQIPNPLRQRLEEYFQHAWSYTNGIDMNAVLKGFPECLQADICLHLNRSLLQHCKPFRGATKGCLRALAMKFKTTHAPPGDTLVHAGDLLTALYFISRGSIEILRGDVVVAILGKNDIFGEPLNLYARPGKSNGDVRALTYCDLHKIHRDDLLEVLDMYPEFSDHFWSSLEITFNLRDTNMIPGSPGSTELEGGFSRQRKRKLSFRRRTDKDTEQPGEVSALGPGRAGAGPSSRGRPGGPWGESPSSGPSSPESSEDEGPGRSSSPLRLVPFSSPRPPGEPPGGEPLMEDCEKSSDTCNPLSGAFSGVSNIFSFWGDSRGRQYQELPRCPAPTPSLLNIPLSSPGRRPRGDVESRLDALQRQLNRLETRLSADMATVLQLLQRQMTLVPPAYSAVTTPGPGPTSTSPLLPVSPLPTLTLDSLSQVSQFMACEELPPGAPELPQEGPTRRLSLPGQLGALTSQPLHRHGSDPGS

[12] = Tmax in Sprague-Dawley rat at 1 mg/kg, iv measured upto 24 hrs by LC-MS/MS analysis; format: ADME, organism-based; details: in vivo
[13] = AUClast in Sprague-Dawley rat at 10 mg/kg, po measured upto 24 hrs by LC-MS/MS analysis; format: ADME, organism-based; parameters: dose 10 mg/kg, time < 24 hrs, route po; details: in vivo
[14] = molecular target: T2, Extracellular calcium-sensing receptor (Homo sapiens, UniProt P41180); assay: Agonist activity at human CaSR expresssed in HEK293 cells in presence of glucose by Fluo4NW dye based FLIPR assay; format: functional, cell-based; details: read-out: EC50
T2 sequence (P41180 whole entry): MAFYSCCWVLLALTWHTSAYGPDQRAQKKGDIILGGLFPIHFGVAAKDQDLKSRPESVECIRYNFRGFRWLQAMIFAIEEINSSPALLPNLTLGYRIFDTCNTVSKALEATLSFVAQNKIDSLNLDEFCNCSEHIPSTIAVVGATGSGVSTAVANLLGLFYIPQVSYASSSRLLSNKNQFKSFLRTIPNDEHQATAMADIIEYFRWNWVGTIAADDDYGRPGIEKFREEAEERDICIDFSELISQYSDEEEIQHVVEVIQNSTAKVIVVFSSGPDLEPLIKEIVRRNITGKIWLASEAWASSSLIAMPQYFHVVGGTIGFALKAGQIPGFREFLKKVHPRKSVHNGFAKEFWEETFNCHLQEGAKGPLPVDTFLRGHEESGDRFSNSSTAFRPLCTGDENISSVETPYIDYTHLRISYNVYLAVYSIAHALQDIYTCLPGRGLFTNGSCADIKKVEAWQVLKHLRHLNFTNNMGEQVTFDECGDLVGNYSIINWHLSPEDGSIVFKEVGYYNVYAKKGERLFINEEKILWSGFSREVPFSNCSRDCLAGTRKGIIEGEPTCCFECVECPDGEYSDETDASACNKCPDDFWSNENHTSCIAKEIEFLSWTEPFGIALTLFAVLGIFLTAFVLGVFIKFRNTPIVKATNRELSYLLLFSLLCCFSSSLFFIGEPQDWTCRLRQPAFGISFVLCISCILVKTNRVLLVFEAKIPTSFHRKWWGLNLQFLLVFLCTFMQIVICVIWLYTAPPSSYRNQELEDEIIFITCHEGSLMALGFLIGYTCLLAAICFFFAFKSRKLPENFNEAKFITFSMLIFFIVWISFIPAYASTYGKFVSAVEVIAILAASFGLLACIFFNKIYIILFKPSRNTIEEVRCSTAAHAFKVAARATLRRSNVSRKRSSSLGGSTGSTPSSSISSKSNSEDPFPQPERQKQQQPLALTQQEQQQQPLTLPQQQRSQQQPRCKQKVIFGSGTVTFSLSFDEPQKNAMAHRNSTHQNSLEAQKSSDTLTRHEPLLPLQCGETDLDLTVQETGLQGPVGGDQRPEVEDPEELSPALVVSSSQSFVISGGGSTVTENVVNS

hERG [15] = molecular target: T1, hERG; assay: Inhibition of hERG at 10 uM relative to control; format: toxicity
CYP2D6 [16] = molecular target: T3, CYP2D6 (Homo sapiens, UniProt P10635); assay: Inhibition of CYP2D6 in human liver microsomes at 10 uM preincubated for 5 mins followed by NADPH addition by LC-MS/MS analysis relative to control; format: ADME, Microsome
T3 sequence (P10635 whole entry): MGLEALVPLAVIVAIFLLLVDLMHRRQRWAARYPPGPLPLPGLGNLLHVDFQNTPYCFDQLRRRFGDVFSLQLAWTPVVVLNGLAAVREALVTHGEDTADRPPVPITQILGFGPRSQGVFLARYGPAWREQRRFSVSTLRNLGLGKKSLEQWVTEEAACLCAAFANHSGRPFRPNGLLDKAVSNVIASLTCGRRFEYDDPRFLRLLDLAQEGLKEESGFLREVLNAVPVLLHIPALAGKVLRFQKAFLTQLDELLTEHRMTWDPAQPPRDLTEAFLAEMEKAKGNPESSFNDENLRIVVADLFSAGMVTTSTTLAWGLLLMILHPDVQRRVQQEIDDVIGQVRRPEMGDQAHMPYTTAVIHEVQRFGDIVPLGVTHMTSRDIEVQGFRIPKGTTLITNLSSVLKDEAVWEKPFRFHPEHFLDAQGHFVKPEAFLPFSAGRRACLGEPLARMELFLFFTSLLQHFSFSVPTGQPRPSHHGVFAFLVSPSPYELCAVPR

[17] = Effect on parathyroid hormone in overnight fasted Sprague-Dawley rat assessed as reduction in plasma PTH level at 30 mg/kg, po measured after 2 hrs of post treatment by sandwich ELISA analysis; format: functional; parameters: scale not given: the % may be the effect or the level left
[18] = Microsomal stability in human liver microsomes assessed as parent compound remaining at 1 uM measured upto 30 mins in presence of NADPH by LC-MS/MS analysis; format: ADME, Microsome; details: liver microsomes, read-out: Stability
[19] = Volume of distribution at steady state in Sprague-Dawley rat at 1 mg/kg, iv measured upto 24 hrs by LC-MS/MS analysis; format: ADME, organism-based; details: in vivo, read-out: Vdss
CYP2D6 [20] = molecular target: T3, CYP2D6; assay: Inhibition of CYP2D6 in human liver microsomes at 1 uM preincubated for 5 mins followed by NADPH addition by LC-MS/MS analysis relative to control; format: ADME, Microsome
[21] = Half life in Sprague-Dawley rat at 1 mg/kg, iv measured upto 24 hrs by LC-MS/MS analysis; format: ADME, organism-based; details: in vivo
[22] = Effect on parathyroid hormone in overnight fasted Sprague-Dawley rat assessed as reduction in plasma PTH level at 10 mg/kg, po measured after 0.5 hrs of post treatment by sandwich ELISA analysis; format: functional; parameters: scale not given: the % may be the effect or the level left
[23] = Cmax in Sprague-Dawley rat at 10 mg/kg, po measured upto 24 hrs by LC-MS/MS analysis; format: ADME, organism-based; parameters: time < 24 hrs, dose 10 mg/kg, route po; details: in vivo
[24] = Effect on parathyroid hormone in overnight fasted Sprague-Dawley rat assessed as reduction in plasma PTH level at 30 mg/kg, po measured after 4 hrs of post treatment by sandwich ELISA analysis; format: functional; parameters: scale not given: the % may be the effect or the level left
[25] = Effect on parathyroid hormone in overnight fasted Sprague-Dawley rat assessed as reduction in plasma PTH level at 30 mg/kg, po measured after 1 hrs of post treatment by sandwich ELISA analysis; format: functional; parameters: scale not given: the % may be the effect or the level left
[26] = AUClast in Sprague-Dawley rat at 1 mg/kg, po measured upto 24 hrs by LC-MS/MS analysis; format: ADME, organism-based; parameters: dose 1 mg/kg, time < 24 hrs, route po; details: in vivo
[27] = Volume of distribution at steady state in Sprague-Dawley rat at 0.3 mg/kg, iv measured upto 24 hrs by LC-MS/MS analysis; details: in vivo
in vivo [28] = details: Sprague-Dawley, rat, po, 1 mg/kg
Description: Cmax in Sprague-Dawley rat at 1 mg/kg, po measured upto 24 hrs by LC-MS/MS analysis

in vivo [29] = details: Sprague-Dawley, rat, po, 1 mg/kg; remark: listed apart in the source
Description: Tmax in Sprague-Dawley rat at 1 mg/kg, po measured upto 24 hrs by LC-MS/MS analysis

[30] = Clearance in Sprague-Dawley rat at 0.3 mg/kg, iv measured upto 24 hrs by LC-MS/MS analysis; details: in vivo
in vivo [31] = details: Sprague-Dawley, rat, iv, 0.3 mg/kg
Description: Cmax in Sprague-Dawley rat at 0.3 mg/kg, iv measured upto 24 hrs by LC-MS/MS analysis

[32] = AUClast in Sprague-Dawley rat at 0.3 mg/kg, iv measured upto 24 hrs by LC-MS/MS analysis; format: ADME, organism-based; parameters: dose 0.3 mg/kg, time < 24 hrs, route iv; details: in vivo
[33] = Half life in Sprague-Dawley rat at 0.3 mg/kg, iv measured upto 24 hrs by LC-MS/MS analysis; details: in vivo
[34] = Half life in Sprague-Dawley rat at 1 mg/kg, po measured upto 24 hrs by LC-MS/MS analysis; details: in vivo
Cytochrome P450 2D6 = Cytochrome P450 2D6 (Homo sapiens, UniProt P10635); assay: Inhibition of CYP2D6 in human liver microsomes preincubated for 5 mins followed by NADPH addition by LC-MS/MS analysis; format: ADME, Microsome
Cytochrome P450 2D6, sequence (P10635 whole entry): as above

Rattus norvegicus [35] = assay: Acute effect on parathyroid hormone in overnight fasted adenine diet-induced chronic kidney disease Wistar rat model assessed as reduction in plasma PTH level at 10 mg/kg, po measured after 1 hrs of post treatment by sandwich ELISA analysis; format: functional; parameters: scale not given: the % may be the effect or the level left
Rattus norvegicus [36] = assay: Effect on parathyroid hormone in po dosed overnight fasted Sprague-Dawley rat assessed as reduction in plasma PTH level measured after 0.5 to 6 hrs of post treatment by sandwich ELISA analysis; format: functional, organism-based; details: dose 3-30 mg/kg, time 0.5-6 hrs
Rattus norvegicus [37] = assay: Acute effect on parathyroid hormone in overnight fasted adenine diet-induced chronic kidney disease Wistar rat model assessed as reduction in plasma PTH level at 10 mg/kg, po measured after 4 hrs of post treatment by sandwich ELISA analysis; format: functional; parameters: scale not given: the % may be the effect or the level left
[38] = Effect on parathyroid hormone in overnight fasted Sprague-Dawley rat assessed as reduction in plasma PTH level at 10 mg/kg, po measured after 6 hrs of post treatment by sandwich ELISA analysis (reference value: 33%); format: functional; parameters: scale not given: the % may be the effect or the level left
Rattus norvegicus [39] = assay: Subchronic effect on parathyroid hormone in overnight fasted adenine diet-induced chronic kidney disease Wistar rat model plasma assessed as reduction in plasma PTH level at 3 mg/kg, po qd measured after 27 days of post treatment by sandwich ELISA analysis; format: functional; parameters: scale not given: the % may be the effect or the level left; details: time 27 day
Rattus norvegicus [40] = assay: Chronic effect on parathyroid hormone in overnight fasted adenine diet-induced chronic kidney disease Wistar rat model plasma assessed as reduction in plasma PTH level at 10 mg/kg, po qd measured after 27 days of post treatment by sandwich ELISA analysis; format: functional; parameters: scale not given: the % may be the effect or the level left; details: time 27 day
Rattus norvegicus [41] = assay: Acute effect on parathyroid hormone in overnight fasted adenine diet-induced chronic kidney disease Wistar rat model assessed as reduction in plasma PTH level at 10 mg/kg, po measured after 2 hrs of post treatment by sandwich ELISA analysis; format: functional; parameters: scale not given: the % may be the effect or the level left

| AUC(0-t) at 24 h [3] [µM·h] | Tmax [4] [h] | remaining at 0.5 h, 1 µM [5] [%] | Cmax [8] [nM] | clearance [9] [mL/min/kg] | bioavailability [10] [%] | AUC(0-t) at 24 h [13] [µM·h] | EC50 [14] [nM] | remaining at 0.5 h, 1 µM [18] [%] | Vd [19] [L/kg] | half-life [21] [h] | Cmax [23] [nM] | Compound | Activity [1] [%] | Activity [6] [%] | inhibition at 1 µM (hERG [11]) [%] | inhibition at 10 µM (hERG [15]) [%] | Activity [22] [%] | further results |
| --- | --- | --- | --- | --- | --- | --- | --- | --- | --- | --- | --- | --- | --- | --- | --- | --- | --- | --- |
| 7 | 0.05 | 55 | 5000 | 5 | 79 | 55 | 7 | 45 | 1 | 3 | 13000 | Cc1ccc(N2CC(CN[C@H](C)c3cccc4ccccc34)Oc3ccccc32)cc1C(=O)O.Cl (stereo partly specified) | 100 | 66 | 7 | 14 | 100 | Activity [2]: 86%; Activity [7]: 100%; Tmax [12]: 4.8 min; inhibition at 10 µM (CYP2D6 [16]): 47%; Activity [17]: 100%; inhibition at 1 µM (CYP2D6 [20]): 44%; Activity [24]: 92%; Activity [25]: 97% |
|  |  | 34 |  |  |  |  |  | 68 |  |  |  | C[C@@H](N[C@H]1CCN(c2ccc(CC(=O)O)cc2)C1)c1cccc2ccccc12 [EVOCALCET] |  |  |  |  |  | AUC(0-t) at 24 h [26]: 23 µM·h; Vd at 24 h [27]: 0.591 L/kg; Cmax at 24 h (in vivo [28]): 5840 nM; Tmax at 24 h (in vivo [29]): 0.81 h; clearance at 24 h [30]: 1.67 mL/min/kg; Cmax at 24 h (in vivo [31]): 270 nM; AUC(0-t) at 24 h [32]: 8.03 µM·h; half-life at 24 h [33]: 7.32 h; half-life at 24 h [34]: 6.13 h |
| 1.02 | 0.5 | 4 | 500 | 44 | 19 | 1.9 | 4 | 65 | 23 | 6 | 270 | C[C@@H](NCCCc1cccc(C(F)(F)F)c1)c1cccc2ccccc12 [CINACALCET] | 99 | 74 | 19 | 97 | 92 | IC50 (Cytochrome P450 2D6): > 50000 nM; Activity (Rattus norvegicus [35]): 92%; Activity (Rattus norvegicus [36]): Dose-Dependent Effect; Activity (Rattus norvegicus [37]): 71%; Activity [38]: 61%; Activity (Rattus norvegicus [39]): 37%; Activity (Rattus norvegicus [40]): 58%; Activity (Rattus norvegicus [41]): 97% |
